Assay results as given in patent publication US9572911B2, “Method for decellularization of tissue grafts” (University of Florida Research Foundation, Inc., priority 2013, dated 2017).

Molecular target: purified laminin-1 (Homo sapiens, UniProt P07942+P11047+P25391)
Assay: Effects of individual detergents on the neurite-promoting activity of purified laminin
Assay type: cell-based
Conditions: dialyzed, neurons 24 hours, FIG. 14
Protocol: FIG. 14. Effects of individual detergents on the neurite-promoting activity of purified laminin. Purified laminin-1 was mixed with individual detergents as follows: Control (buffer alone), sulfobetaine-10 (125 mM), sulfobetaine-16 (0.6 mM) and […] (0.14%). The mixtures were extensively dialyzed and then were added to tissue culture wells to form a substratum onto which dissociated neurons were seeded. After 24 hours in culture the length of neurites were measured. Data represent the specific activities (ED50) calculated from mean scores from dilution series performed in duplicates in 4 separate experiments
The extracellular matrix of nerve is known to promote the growth of axons. In particular, the basal lamina tubes encasing axons provides a potent stimulus for axonal growth in nerve regeneration. The cryoculture assay used in the experiments described above relies on the structure and growth-promoting activity of the basal lamina. It is well documented that laminin is the major neurite-promoting component of the nerve basal lamina. […] Therefore, tests were performed to examine the effects of individual detergents on purified laminin. Laminin activity was unchanged by SB-10. Exposure to SB-16 reduced laminin activity approximately 50%.

Row | Compound | laminin neurite-promoting activity after exposure to detergent (SB-10 125 mM, SB-16 0.6 mM, Triton X-200 0.14%) | reduction of laminin activity (sulfobetaine-16 0.6 mM)
1 | CCCCCCCCCC[N+](C)(C)CCCS(=O)(=O)[O-] [SB-10, sulfobetaine-10] | unchanged | 
2 | CCCCCCCCCCCCCCCC[N+](C)(C)CCCS(=O)(=O)[O-] [SB-16, sulfobetaine-16] |  | approximately 50%
